Results as given in PMC7094215, “Synthesis and Evaluation of Antileishmanial and Cytotoxic Activity of Benzothiopyrane Derivatives” (Molecules, 2020).
Like-named read-outs stand apart in the source and are kept apart here.

Columns and labels:
[1] = test system: human monocytes (U-937 ATCC CRL-1593.2); assay: Cytotoxic activity, MTT method; assay type: cell-based; settings: 72 h
Method: (§1) Cytotoxicity of the compounds was evaluated on human monocytes (U-937 ATCC CRL-1593.2) in an exponential growth phase and adjusted at 1 × 10^5 cells/mL in RPMI-1640 enriched with 10% fetal bovine serum (FBS). One hundred microliters of cell suspension were dispensed in each well of a 96-wells microplate, and then 100 μL of 200-50-12.5 and 3.125 μg/mL concentration of each compound or standard drug (amphotericin B) were added dissolved in PBS with 0.5% DMSO. Cell exposed to compounds or standard drugs were incubated 72 h at 37 °C and 5% of CO2. Cytotoxic activity of each compound was determined according to the effect on the cell viability by the MTT microenzymatic method in which 3-(4,5-dimethylthiazol-2-yl)-2,5-diphenyltetrazolium bromide is reduced to a purple formazan product by mitochondrial enzyme succinate dehydrogenase. Thus, 10 μL/well of MTT solution (5 mg/mL) was added to each well of exposed and unexposed cells, and plates were incubated at 37 °C, 5% CO2 during 3 h. The reaction was stopped by adding 100 μL/well of isopropanol with 50% and 10% of SDS (sodium dodecyl sulfate). The concentration of formazan was determined spectrophotometrically at 570 nm (Varioskan, Thermo, Waltham, MA, USA) and intensity of color (absorbance) was registered as O.D. Cells exposed to control drug (amphotericin B) were used as control for toxicity (positive control) while cell incubated in the absence of any compound or drug were used as control for viability (negative control). Non-specific absorbance was corrected by subtracting absorbance (O.D) of the blank. Determinations were done by triplicate in at least two independent experiments.
(§2) Cytotoxicity was determined according to viability and mortality percentages obtained for each experimental condition (synthesized compounds, amphotericin B, and culture medium). Results were expressed as the mean lethal concentrations (LC50), the concentration necessary to kill 50% of cells, calculated by the parametric method of linear regression that permits doses-response analysis (Probit analysis).
(§3) Initially, viability percentages were calculated by Equation (1), where the O.D of control well, corresponds to 100% of viability:(1) % Viability=(O.D. exposed cells/O.D. unexposed cells)×100
(§4) Then, the percentage of cell growth inhibition was calculated using Equation (2):(2) % Inhibition =100−(% Viability)
(§5) The toxicity was defined according to LC50 values, using the follow scale: Toxic; LC50 < 100 μM; moderately toxic; LC50 > 100 μM and < 200 μM and potentially nontoxic; LC50 > 200 μM.

[2] = test system: intracellular amastigotes of L. panamensis (MHOM/CO/87/UA140-EGFP strain); assay: In vitro antileishmanial activity on intracellular amastigotes (GFP, flow cytometry); assay type: cell-based, Leishmania (V) panamensis; settings: for EC50: intracellular amastigotes in U-937 cells, 72 h exposure, mean ± SD, Probit; for SI (Selectivity Index = LC50/EC50): LC50 U-937 / EC50 L. panamensis amastigotes
Method: Antileishmanial activity of compounds was determined according to the ability of the compound to reduce the infection by L. panamensis parasites. For this, the antileishmanial activity was tested on intracellular amastigotes of L. panamensis transfected with the green fluorescent protein gene (MHOM/CO/87/UA140-EGFP strain). Briefly, U-937 human cells at a density of 3 × 10^5 cells/mL in RPMI 1640 and 0.1 μg/mL of PMA (phorbol-12-myristate-13-acetate) were dispensed on 24-wells microplate and then infected with stationary phase growing L. panamensis promastigotes in 15:1 parasites per cell ratio. Plates were incubated at 34 °C and 5% CO2 for 3 h, and then cells were washed twice with phosphate buffer solution (PBS) to eliminate not internalized parasites. Fresh RPMI-1640 was added into each well (1 mL), and plates were incubated again. After 24 h of infection, the RPMI-1640 medium was replaced by fresh culture medium containing each compound at four serial dilutions (50, 12.5, 3.125 and 0.78 μg/mL) and plates were then incubated at 37 °C and 5% CO2 during 72 h, then, cells were removed from the bottom plate with 100 µL of EDTA/trypsin (250 mg) solution. The cells were centrifuged at 1100 rpm during 10 min at 4 °C, the supernatant was discarded, and cells were washed with 1 mL of cold PBS and centrifuged at 1100 rpm for 10 min at 4 °C. Cells were washed two times employing PBS, as previously, and after the last wash, the supernatant was discarded, and cells were suspended in 500 μL of PBS.
Cells were analyzed by flow cytometry employing a flow cytometer (FC 500MPL, Cytomics, Beckman Coulter. Pasadena, CA, USA) reading at 488 nm (exciting) and 525 nm (emitting) over an argon laser and counting 10,000 events. Infected cells were determined according to the events for green fluorescence (parasites). All determinations for each compound and standard drug were carried out by triplicate, in two experiments. Infected cells exposed to control drug (amphotericin B) were used as the control for antileishmanial activity (positive control), while infected cells incubated in the absence of any compound or drug were used as another control for infection (negative control). Nonspecific fluorescence was corrected by subtracting the fluorescence of unstained cells. Determinations were done by triplicate in at least two independent experiments.
The antileishmanial activity was determined according to the reduction of the percentage of fluorescent parasites determined according to the median fluorescence intensity (MFI) obtained for each experimental condition by cytometry. The parasite values for each concentration of compound were calculated by Equation (3), where the % of parasites in control well, corresponds to 100% of parasites:(3) % Parasites=(MFI exposed parasites/MFI unexposed parasites)×100
Then, the inhibition percentage was calculated with Equation (4):(4) % Inhibitors of Parasites=100−(% Parasites)
Results of antileishmanial activities were expressed as the median effective concentrations (EC50) measured by Probit method.

[3] = Cytotoxic activity, MTT method; assay type: cell-based; settings: human, LC50
Method: as §1, §2, §3, §4, §5

[4] = Leishmania panamensis, U-937, 72 h

Compound | CC50 ([1]; U-937 cells, MTT, mean ± SD, Probit, read-out: LC50 (the source's name)) [µM] | EC50 [2] [µM] | CC50 ([1]; human) [µM] | SI (Selectivity Index = LC50/EC50) [2] | CC50 at 72 h [3] [µM] | EC50 [2, 4] [µM]
4-(2-Carbamoylhydrazineylidene)thiochromane-2-carboxylic acid [Compound 26c] | 1160 ± 340 | > 189 | – | – | – | –
O=C1CC(C(=O)O)Sc2ccccc21 (stereo not drawn) [20a (-), 4-oxo-thiochroman-2-carboxylic acid] | – | 53.5 ± 10.8 | 33 ± 1.5 | 0.6 | – | –
CCCCOC(=O)C1CC(=O)c2ccccc2S1 (stereo not drawn) [22b (+), butyl 4-oxothiochromane-2-carboxylates] | – | 368 ± 24.2 | 74.9 ± 52.8 | 0.2 | – | –
CCCCOC(=O)C1CC(=O)c2ccccc2S1 (stereo not drawn) [22b (-), butyl 4-oxothiochromane-2-carboxylates] | – | 53 ± 10.8 | 28.8 ± 4.5 | 0.5 | – | –
Cc1ccccc1NC(=O)C1CC(=O)c2ccccc2S1 (centres unmarked) [Compound 24c, 4-Oxo-N-(o-tolyl)thiochromane-2-carboxamide] | – | – | – | < 1.2 | 119 ± 10.9 | > 101
CCOC(=O)C1CC(=NNC(=O)c2ccccc2)c2ccccc2S1 (centres unmarked) [Compound 26a, Ethyl 4-(2-benzoylhydrazineylidene)thiochromane-2-carboxylate] | – | – | – | 0.5 | 15.4 ± 0.2 | 28.5 ± 6.3
CCOC(=O)C1CC(=NNC(=O)c2ccncc2)c2ccccc2S1 (centres unmarked) [Compound 26b, Ethyl 4-(2-isonicotinoylhydrazineylidene)thiochromane-2-carboxylate] | – | – | – | 0.3 | 15.2 ± 0.2 | 53.2 ± 41
